One assay concerns clinical PCLS tissues. The assay is described as follows: FPS/PLS response (CES, nCounter) in organotypic ex vivo culture of clinical PCLS tissues. The class given is cell-based, human. The settings on record: for FPS response rate (number of responding patients): count of patients with CES-based FPS response; for FPS response rate (number of responding patients) / FPS response rate: PCLS cultured 24 h with agent vs vehicle; for PLS response rate (number of responding patients): count of patients with PLS response; for PLS response rate (number of responding patients) / PLS response rate: ex vivo PCLS culture; for modulation of SLC7A1 (CAT1): drug-level FPS gene modulation in ex vivo PCLS culture; for FPS response rate: percent of patients tested with CES-based FPS response; for PLS response rate: percent of patients tested with PLS response. The text has this: (§1) Evaluation of galunisertib, erlotinib, AM095, bortezomib, pioglitazone, metformin, epigallocatechin gallate (EGCG), I-BET 151, JQ1, captopril, nizatidine (Selleck Chemicals); MG-132 (Sigma-Aldrich); cenicriviroc (AbbVie) (Table 2) were done in organotypic ex vivo culture of precision-cut liver slice (PCLS) tissues in the FPS validation set 2 as previously described. Patient-derived liver cell spheroids were generated from a cirrhosis patient and high-risk FPS was induced by free fatty acids, and treated with EGCG, bortezomib, cenicriviroc, and/or bezafibrate for 48 h. Mycoplasma-free human hepatic myofibroblast cell lines, LX-2 and TWNT-4, were cultured with MG-132 (20 μM) or DMSO control for 12 and 24 h in triplicates.
Total RNA was isolated from fixed tissue sections by using High Pure RNA Paraffin kit (Roche), and assessed for quality by qRT-PCR of RPL13A. Total RNA from the PCLS tissues was isolated using RNeasy kit (Qiagen). RNA samples (100-200 ng) were subjected to the PLS/FPS assay implemented in the nCounter platform (NanoString), and transcriptome profiling of the CENTAUR trial samples was performed by RNA-Seq (TrueSeq RNA Access, Illumina). Expression of BCL2, COL1A1, and ACTA2 genes was measured by qRT-PCR (Table 3). Serum protein profiling was performed by using xMAP assay (Luminex).
Total RNA was isolated from three to five 10-μm-thick formalin-fixed paraffin-embedded (FFPE) tissue sections from the PLS/FPS derivation/validation cohorts by using High Pure RNA Paraffin kit (Roche), and lack of severe RNA fragmentation was confirmed by qRT-PCR of a housekeeping gene RPL13A as previously described.^1 From freshly harvested myofibroblast cell lines, LX-2 and TWNT-4, and clinical precision-cut-liver slice (PCLS) tissues stored in RNAlater (ThermoFisher) at −80?C, total RNA was isolated using RNeasy kit (Qiagen), and the RNA integrity number (RIN)>8 by Bioanalyzer (Agilent) was regarded as sufficient quality for expression analysis. Total RNA samples (100 to 500 ng) were subjected to the gene signature assays implemented in the digital transcript counting technology (NanoString) according to manufacturer's instruction. Poor quality profiles were detected based on maximum signal intensity from positive control probes <3,000U. Raw transcript count data were log-transformed (base 2) and scaled by geometric mean of control probe data by using NanoString normalizer module implemented in GenePattern data analysis suite (www.broadinstitute.org/genepattern). Genome-wide transcriptome profiling of the CENTAUR trial samples was performed using 100 to 200 ng total RNA by RNA-Seq using exome-enriched library preparation according to the manufacturer's protocol (TrueSeq, Illumina). Raw sequencing reads were mapped onto the reference human genome (hg19) by using the STAR aligner (ver. 2.6.1b) followed by the read counting on genes via featureCounts in the Subread package (ver. 1.6.1). The raw read counts were further normalized by using the Relative Log Expression (RLE) implemented in the DESeq2 package (ver. 1.22.2). Expression of COL1A1, and ACTA2, and BCL2 genes was measured by qRT-PCR (BioRad) using ddCt method with RPL13A as housekeeping gene, as previously described (refer Table 3 for the primer sequences). Gene expression profiles of the PLS/FPS-inducible cell culture model (cell-culture-derived PLS [cPLS] system) treated with erlotinib, pioglitazone, captopril, and resveratrol were obtained from our previous study (GSE81801).

Assay [1] relates to PCLS tissue from a chronic hepatitis C patient with F2 fibrosis. The assay is described as follows: Validation of combination therapies by liver fibrosis gene panel in ex vivo culture of a clinical fibrotic PCLS tissue. The note with it: agent added to EGCG. Type of assay: cell-based, human.
Text: as §1
To test this idea, synergistic effect of the agents to shift the FPS from high- to low-risk pattern was computationally inferred, i.e., suppression of the high-risk genes and/or induction of the low-risk genes (see materials and methods).

The subject of assay [2] is biliary fibrosis induced by bile duct ligation. The settings on record: bile duct ligation in mice; cited from earlier work.
A further assay deals with LX-2. Briefly: MG-132 effect on COL1A1, ACTA2 and BCL2 expression (qRT-PCR) in LX-2. The settings on record: MG-132 20 μM vs DMSO, 12 and 24 h. The class given is cell-based, human.
Text: as §1
(§2) Total RNA was isolated from fixed tissue sections by using High Pure RNA Paraffin kit (Roche), and assessed for quality by qRT-PCR of RPL13A. Total RNA from the PCLS tissues was isolated using RNeasy kit (Qiagen). RNA samples (100-200 ng) were subjected to the PLS/FPS assay implemented in the nCounter platform (NanoString), and transcriptome profiling of the CENTAUR trial samples was performed by RNA-Seq (TrueSeq RNA Access, Illumina). Expression of BCL2, COL1A1, and ACTA2 genes was measured by qRT-PCR (Table 3). Serum protein profiling was performed by using xMAP assay (Luminex). […]
Background: Real-time PCR tracks product formation cycle by cycle.

For another assay, the system named is clinical PCLS tissue. Briefly: Immunostaining of cleaved caspase-3, alpha-SMA and GFAP in PCLS tissues cultured with MG-132 or DMSO. The class given is cell-based, human. The note with it: PCLS tissues cultured with MG-132 vs DMSO, five patients. Here is the method:
FIG. 4A depicts a co-expression gene network defined in the FPS derivation set 1 to 4. Hub genes are indicated with larger nodes. Synthesized association with time to fibrosis progression (Fisher's inverse chi-square statistic) in the FPS derivation set 1 and 2 is shown by red (poor outcome) to blue (good outcome) color scale. […] All assays were performed in triplicates. Green dotted line indicates expression level of the DMSO-treated control. […] Paired tissues from the same patient are connected with a line. Wilcoxon signed-rank test p-value is shown. […] Scale bars indicate 50 μm and 25 μm for upper and lower panels, respectively. […] Scale bars indicate 100 μm. […] NES: normalized enrichment score. FDR: false discovery rate.
Immunostaining was performed for caspase-3 (Asp175) (5A1E, Cell Signaling), alpha-SMA (Abcam), Desmin (DAKO), GFAP (abcam), and Ki-67 (Abcam). TUNEL staining was performed using ApopTag Peroxidase In Situ Apoptosis Detection Kit (EMD Millipore).

In another assay the test system is TWNT-4. Briefly: MG-132 effect on COL1A1, ACTA2 and BCL2 expression (qRT-PCR) in TWNT-4. Type of assay: cell-based, human. The note with it: MG-132 20 μM vs DMSO, 12 and 24 h.
Text: as §1, §2

Assay [3] has as its system human precision-cut liver slice (PCLS). The assay is described as follows: MG-132 effect on COL1A1, ACTA2 and BCL2 expression (qRT-PCR) in ex vivo PCLS culture. The class given is cell-based. The note with it: PCLS from two patients, HCV (F1) and NAFLD (F2); vs DMSO.
Text: as §1, §2

Residues, ends and D or L forms follow the SMILES beside them. *: point of attachment. Cbz = O=C(OCc1ccccc1)*

As to `Cc1noc(-c2ccc(-c3ccc(CC(=O)O)cc3)cc2)c1NC(=O)O[C@H](C)c1ccccc1` [AM095], in the assay on clinical PCLS tissues, the “FPS response rate (number of responding patients)” value worked out at 11, the “PLS response rate (number of responding patients)” value is 8, the “modulation of SLC7A1 (CAT1)” value is given as “similarly striking suppression” and the FPS response rate came to 38%. Further, the PLS response rate in the assay with clinical PCLS tissues amounted to 27.59%.
On to `CC(C)C[C@H](NC(=O)[C@H](Cc1ccccc1)NC(=O)c1cnccn1)B(O)O` [Bortezomib], for which, in the assay on clinical PCLS tissues, the “FPS response rate (number of responding patients)” value amounted to 4 and the “PLS response rate (number of responding patients)” value worked out at 5. For the same molecule, the “expression of genes encoding extracellular matrix proteins (COL1A1, HAS2) and fibrogenic drivers (PDGFRB, TGFB1, NOTCH1, LPAR1)” value in assay [1] is given as “substantially reduced expression”. In addition, in assay [2], the “myofibroblast activation and biliary fibrosis” value is “reduced myofibroblast activation and inhibit biliary fibrosis”.
In the case of `O=C(O[C@@H]1Cc2c(O)cc(O)cc2O[C@@H]1c1cc(O)c(O)c(O)c1)c1cc(O)c(O)c(O)c1` [Epigallocatechin gallate], in the assay on clinical PCLS tissues, the “FPS response rate (number of responding patients)” value is 7, the “PLS response rate (number of responding patients)” value was found to be 9, the FPS response rate is listed as 64% and the PLS response rate is reported as 81.82%.
In the case of `C#Cc1cccc(Nc2ncnc3cc(OCCOC)c(OCCOC)cc23)c1` [Erlotinib], in the assay on clinical PCLS tissues, the “FPS response rate (number of responding patients)” value was determined as 11 and the “PLS response rate (number of responding patients)” value is reported as 13.
For `Cc1cccc(-c2nn3c(c2-c2ccnc4ccc(C(N)=O)cc24)CCC3)n1` [Galunisertib], in the assay on clinical PCLS tissues, the “FPS response rate (number of responding patients)” value turned out to be 6, the “PLS response rate (number of responding patients)” value is reported as 7 and the “modulation of SLC7A1 (CAT1)” value is on record as “similarly striking suppression”.
With `CC(C)C[C@@H](C=O)NC(=O)[C@H](CC(C)C)NC(=O)[C@H](CC(C)C)NC(=O)OCc1ccccc1` [MG132] (Cbz-Leu-Leu-Leu-aldehyde), the results for the “expression of COL1A1, ACTA2 and BCL2” value (in the assay on LX-2; in the assay with TWNT-4; in assay [3]) were “suppression”, “suppression” and “reduced expression”, respectively. In addition, the “modulation of high-risk FPS genes (gene set enrichment analysis)” value in the assay on clinical PCLS tissues (clinical fibrotic PCLS tissues, ex vivo MG-132, FDR≤0.008) was “significantly suppressed”. In addition, the “FPS response rate (number of responding patients)” value in the assay with clinical PCLS tissues stood at 6. In addition, the “PLS response rate (number of responding patients)” value in the assay on clinical PCLS tissues stood at 3. The “cleaved-caspase-3-positive cells (apoptosis induction)” value with clinical PCLS tissue is on record as “increased”. Besides, in assay [1], the “expression of genes encoding extracellular matrix proteins (COL1A1, HAS2) and fibrogenic drivers (PDGFRB, TGFB1, NOTCH1, LPAR1)” value was “substantially reduced expression”. In assay [2], the “myofibroblast activation and biliary fibrosis” value was “reduced myofibroblast activation and inhibit biliary fibrosis”.
With `CN(C)C(=N)N=C(N)N` [Metformin], in the assay with clinical PCLS tissues, the “FPS response rate (number of responding patients)” value was 7, the “PLS response rate (number of responding patients)” value was 6 and the “modulation of SLC7A1 (CAT1)” value is “similarly striking suppression”.
Consider `CNC(=C[N+](=O)[O-])NCCSCc1csc(CN(C)C)n1` [Nizatidine], for which, in the assay on clinical PCLS tissues, the “FPS response rate (number of responding patients)” value turned out to be 3 and the “PLS response rate (number of responding patients)” value came out at 3.
Regarding `CCc1ccc(CCOc2ccc(CC3SC(=O)NC3=O)cc2)nc1` (stereo not shown) [Pioglitazone], in the assay with clinical PCLS tissues, the “FPS response rate (number of responding patients)” value is 6 and the “PLS response rate (number of responding patients)” value worked out at 7.
